Test results as given in patent US20240317741A1, “NAPHTHYRIDINE DERIVATIVE AS ATR INHIBITOR AND METHOD FOR PREPARING SAME” (WIGEN BIOMEDICINE TECHNOLOGY (SHANGHAI) CO., LTD., priority 2021, published 2024).

System: MIA PaCa-2 cells
Assay: In-vitro anti-proliferative activity against MIA PaCa-2 cells
Format: cell-based
Conditions: Homo sapiens, 72 h after dosing, intracellular ATP content
Procedure: MIA PaCa-2 cells were seeded on a 384-well plate at 3000 cells/well. After overnight adherence culture, DMSO or the compounds serially diluted 1:5 from 5 μM were added. […] The inhibition percentage of viable cells by the compounds was calculated by comparing with the DMSO group, and the IC50 value was calculated.

Row | IC50 [µM] | Structure (SMILES)
1 | 1 to 5 | C[C@@H]1COCCN1c1cc(C(C#N)CCN2CCN(C)CC2)c2ccnc(-c3ccn[nH]3)c2n1 (some centres unmarked) [Compound 19]
2 | > 5 | C[C@@H]1COCCN1c1cc(C(C#N)C2CCC2)c2ccnc(-c3ccn[nH]3)c2n1 (some centres unmarked) [Compound 20]
3 | 1 to 5 | C[C@@H]1COCCN1c1cc(C(C#N)C2CCCCC2)c2ccnc(-c3ccn[nH]3)c2n1 (some centres unmarked) [Compound 21]
4 | 1 to 5 | C[C@@H]1COCCN1c1cc(C(C#N)C2CCOCC2)c2ccnc(-c3ccn[nH]3)c2n1 (some centres unmarked) [Compound 22]
5 | 1 to 5 | C[C@@H]1COCCN1c1cc(C(C#N)C2CCC(N(C)C)CC2)c2ccnc(-c3ccn[nH]3)c2n1 (some centres unmarked) [Compound 23]
6 | 1 to 5 | C[C@@H]1COCCN1c1cc(C(C#N)C2CCN(C)CC2)c2ccnc(-c3ccn[nH]3)c2n1 (some centres unmarked) [Compound 24]
7 | 1 to 5 | C[C@@H]1COCCN1c1cc(C2(C#N)CCC2)c2ccnc(-c3ccn[nH]3)c2n1 [Compound 26]
8 | > 5 | C[C@@H]1COCCN1c1cc(C2(C#N)CC2)c2ccnc(-c3ccn[nH]3)c2n1 [Compound 28]
9 | 1 to 5 | C[C@@H]1COCCN1c1cc(C2(C#N)CCSCC2)c2ccnc(-c3ccn[nH]3)c2n1 [Compound 30]
10 | < 1 | C[C@@H]1COCCN1c1cc(C2(C#N)CCCCCC2)c2ccnc(-c3ccn[nH]3)c2n1 [Compound 31]
11 | < 1 | C[C@@H]1COCCN1c1cc(C2(C#N)CCC3(CC3)CC2)c2ccnc(-c3ccn[nH]3)c2n1 [Compound 32]
12 | < 1 | C[C@@H]1COCCN1c1cc(C2(C#N)CCC(N3CCN(C)CC3)CC2)c2ccnc(-c3ccn[nH]3)c2n1 (some centres unmarked) [Compound 36]
13 | 1 to 5 | C[C@@H]1COCCN1c1cc(C2(C#N)CCNCC2)c2ccnc(-c3ccn[nH]3)c2n1 [Compound 37, (R)-4-(2-(3-methylmorpholino)-8-(1H-pyrazol-5-yl)-1,7-naphthyridin-4-yl)piperidine-4-carbonitrile]
14 | 1 to 5 | CC(=O)N1CCC(C#N)(c2cc(N3CCOC[C@H]3C)nc3c(-c4ccn[nH]4)nccc23)CC1 [Compound 38, (R)-1-acetyl-4-(2-(3-methylmorpholino)-8-(1H-pyrazol-5-yl)-1,7-naphthyridin-4-yl)piperidine-4-carbonitrile]
15 | 1 to 5 | C[C@@H]1COCCN1c1cc(C2(C#N)CCN(S(C)(=O)=O)CC2)c2ccnc(-c3ccn[nH]3)c2n1 [Compound 39]
16 | > 5 | CC(=O)N1CCCC(C#N)(c2cc(N3CCOC[C@H]3C)nc3c(-c4ccn[nH]4)nccc23)C1 (some centres unmarked) [Compound 40]
17 | < 1 | C[C@@H]1COCCN1c1cc(C2(C#N)CCN(c3ccc(Cl)cc3)CC2)c2ccnc(-c3ccn[nH]3)c2n1 [Compound 45, (R)-1-(4-chlorophenyl)-4-(2-(3-methylmorpholino)-8-(1H-pyrazol-5-yl)-1,7-naphthyridin-4-yl)piperidine-4-carbonitrile]
18 | 1 to 5 | C[C@@H]1COCCN1c1cc(C2(C#N)CCN(c3ccc(F)cn3)CC2)c2ccnc(-c3ccn[nH]3)c2n1 [Compound 47]
19 | < 1 | C[C@@H]1COCCN1c1cc(C2(C#N)CCN(c3cccc(F)c3)CC2)c2ccnc(-c3ccn[nH]3)c2n1 [Compound 48]
20 | < 1 | C[C@@H]1COCCN1c1cc(C2(C#N)CCN(c3ccccc3F)CC2)c2ccnc(-c3ccn[nH]3)c2n1 [Compound 49]
21 | < 1 | C[C@@H]1COCCN1c1cc(C2(C#N)CCN(c3ccc(F)cc3)CC2)c2ccnc(-c3ccn[nH]3)c2n1 [Compound 50]
22 | < 1 | C[C@@H]1COCCN1c1cc(C2(C#N)CCC3(CC2)COC3)c2ccnc(-c3ccn[nH]3)c2n1 [Compound 51]
23 | < 1 | C[C@@H]1COCCN1c1cc(C2(C#N)CCC3(CC2)CN(C)C3)c2ccnc(-c3ccn[nH]3)c2n1 [Compound 52]
24 | < 1 | CCOC1CCC(C#N)(c2cc(N3CCOC[C@H]3C)nc3c(-c4ccn[nH]4)nccc23)CC1 (some centres unmarked) [Compound 54]
25 | < 1 | CC(C)OC1CCC(C#N)(c2cc(N3CCOC[C@H]3C)nc3c(-c4ccn[nH]4)nccc23)CC1 (some centres unmarked) [Compound 55]

Further lines, the molecule ahead of its results:

Row | Structure (SMILES) | IC50 [µM]
26 | C[C@@H]1COCCN1c1cc(CC#N)c2ccnc(-c3ccn[nH]3)c2n1 [Compound 1, (R)-2-(2-(3-methylmorpholino)-8-(1H-pyrazol-5-yl)-1,7-naphthyridin-4-yl)acetonitrile] | > 5
27 | CC(C#N)c1cc(N2CCOC[C@H]2C)nc2c(-c3ccn[nH]3)nccc12 (stereo partly drawn) [Compound 2, 2-(2-((R)-3-methylmorpholino)-8-(1H-pyrazol-5-yl)-1,7-naphthyridin-4-yl)propionitrile] | > 5
28 | C[C@@H]1COCCN1c1cc(C(C)(C)C#N)c2ccnc(-c3ccn[nH]3)c2n1 [Compound 3, (R)-2-methyl-2-(2-(3-methylmorpholino)-8-(1H-pyrazol-5-yl)-1,7-naphthyridin-4-yl)propionitrile] | > 5
29 | CCC(C#N)c1cc(N2CCOC[C@H]2C)nc2c(-c3ccn[nH]3)nccc12 (some centres unmarked) [Compound 4] | > 5
30 | CC(C)C(C#N)c1cc(N2CCOC[C@H]2C)nc2c(-c3ccn[nH]3)nccc12 (some centres unmarked) [Compound 5] | 1 to 5
31 | C[C@@H]1COCCN1c1cc(C(C#N)CC2CC2)c2ccnc(-c3ccn[nH]3)c2n1 (some centres unmarked) [Compound 6] | 1 to 5
32 | C=CC(C#N)c1cc(N2CCOC[C@H]2C)nc2c(-c3ccn[nH]3)nccc12 (some centres unmarked) [Compound 7] | > 5
33 | CC#CC(C#N)c1cc(N2CCOC[C@H]2C)nc2c(-c3ccn[nH]3)nccc12 (some centres unmarked) [Compound 8] | > 5
34 | C[C@@H]1COCCN1c1cc(C(C#N)CCO)c2ccnc(-c3ccn[nH]3)c2n1 (some centres unmarked) [Compound 9] | 1 to 5
35 | COCCC(C#N)c1cc(N2CCOC[C@H]2C)nc2c(-c3ccn[nH]3)nccc12 (some centres unmarked) [Compound 10] | 1 to 5
36 | C[C@@H]1COCCN1c1cc(C(C#N)CC(N)=O)c2ccnc(-c3ccn[nH]3)c2n1 (some centres unmarked) [Compound 11] | 1 to 5
37 | CCOP(=O)(CCC(C#N)c1cc(N2CCOC[C@H]2C)nc2c(-c3ccn[nH]3)nccc12)OCC (some centres unmarked) [Compound 12] | 1 to 5
38 | CSCCC(C#N)c1cc(N2CCOC[C@H]2C)nc2c(-c3ccn[nH]3)nccc12 (some centres unmarked) [Compound 13] | 1 to 5
39 | C[C@@H]1COCCN1c1cc(C(C#N)CC[S+](C)[O-])c2ccnc(-c3ccn[nH]3)c2n1 (some centres unmarked) [Compound 14] | > 5
40 | C[C@@H]1COCCN1c1cc(C(C#N)CCS(C)(=O)=O)c2ccnc(-c3ccn[nH]3)c2n1 (some centres unmarked) [Compound 15] | > 5
41 | C[C@@H]1COCCN1c1cc(C(C#N)CCN)c2ccnc(-c3ccn[nH]3)c2n1 (some centres unmarked) [Compound 16] | 1 to 5
42 | C[C@@H]1COCCN1c1cc(C(C#N)CCN(C)C)c2ccnc(-c3ccn[nH]3)c2n1 (some centres unmarked) [Compound 17] | 1 to 5
43 | C[C@@H]1COCCN1c1cc(C(C#N)CCN2CCCC2)c2ccnc(-c3ccn[nH]3)c2n1 (some centres unmarked) [Compound 18] | 1 to 5
44 | C[C@@H]1COCCN1c1cc(C2(C#N)CCN(CC(F)(F)F)CC2)c2ccnc(-c3ccn[nH]3)c2n1 [Compound 41, (R)-4-(2-(3-methylmorpholino)-8-(1H-pyrazol-5-yl)-1,7-naphthyridin-4-yl)-1-(2,2,2-trifluoroethyl)piperidine-4-carbonitrile] | < 1
45 | C[C@@H]1COCCN1c1cc(C2(C#N)CCN(CC(F)F)CC2)c2ccnc(-c3ccn[nH]3)c2n1 [Compound 42] | < 1
46 | C[C@@H]1COCCN1c1cc(C2(C#N)CCN(C3CCN(C)CC3)CC2)c2ccnc(-c3ccn[nH]3)c2n1 [Compound 44] | < 1
47 | C[C@@H]1COCCN1c1cc(C2(C#N)CCN(C3CC3)CC2)c2ccnc(-c3ccn[nH]3)c2n1 [Compound 46] | < 1
